{"source": "patent US11344546B2", "about": "“Benzamide compounds” (Recurium IP Holdings, LLC, priority 2018, dated 2022)"}
{"tested_on": "RS4;11 cells", "experiment": "RS4;11 cell proliferation assay (CellTiter-Glo)", "assay_type": "cell-based", "settings": "Homo sapiens, 48 h compound treatment, read-out: RS4;11 (nM) CTG IC50", "procedure": "Cell proliferation was measured using the CellTiter-Glo@ Luminescent Cell Viability Assay. The assay involved the addition of a single reagent (CellTiter-Glo® Reagent) directly to cells cultured in serum-supplemented medium. RS4;11 (ATC, CRL-1873) cells were cultured according to ATCC recommendations and were seeded at 50,000 cells per well. NCI-H1963 cells (ATCC CRL-5982) were cultured according to ATCC recommendations and seeded at 12,000 cells per well.\nEach compound evaluated was prepared as a DMSO stock solution (10 mM). Compounds were tested in duplicate on each plate, with a 10-point serial dilution curve (1:3 dilution). Compound treatment (1.0 μL) was added from the compound dilution plate to the cell plate. The highest compound concentration was 10 μM (final), with a 0.1% final DMSO concentration. Plates were then incubated at 37° C., 5% CO2. After 48 h of compound treatment for RS4;11 or 72 h for NCI-H1963, cell plates were equilibrated at rt for approximately 30 mins. An equi-volume amount of CellTiter-Glo@ Reagent (40 μL) was added to each well. Plates were mixed for 2 mins on an orbital shaker to induce cell lysis and then incubated at RT for 10 mins to stabilize the luminescent signal. Luminescence was recorded using a Envision plate reader according to CellTiter-Glo protocol. IC50 of each compound was calculated using GraphPad Prism by nonlinear regression analysis.", "units": {"IC50": "nM"}}
{"smiles": "CC1(C)CCC(CN2CCN(c3ccc(C(=O)NS(=O)(=O)c4ccc(NCCN5CCC6(CCOC6)CC5)c([N+](=O)[O-])c4)c(Oc4cnc5[nH]ccc5c4)c3)CC2)=C(C23CC(Cl)(C2)C3)C1", "note": "[Example 3, 2-((1H-pyrrolo[2,3-b]pyridin-5-yl)oxy)-N-((4-((2-(2-oxa-8-azaspiro[4.5]decan-8-yl)ethyl)amino)-3-nitrophenyl)sulfonyl)-4-(4-((2-(3-chlorobicyclo[1.1.1]pentan-1-yl)-4,4-dimethylcyclohex-1-en-1-yl)methyl)piperazin-1-yl)benzamide]", "IC50": "100 to 1000"}
{"smiles": "CC1(C)CCC(CN2CCN(c3ccc(C(=O)NS(=O)(=O)c4ccc(OC5COC6(CC6)C5)c([N+](=O)[O-])c4)c(Oc4cnc5[nH]ccc5c4)c3)CC2)=C(C23CC(Cl)(C2)C3)C1", "note": "(stereo not shown) [Example 6, 2-((1H-pyrrolo[2,3-b]pyridin-5-yl)oxy)-N-((4-((4-oxaspiro[2.4]heptan-6-yl)oxy)-3-nitrophenyl)sulfonyl)-4-(4-((2-(3-chlorobicyclo[1.1.1]pentan-1-yl)-4,4-dimethylcyclohex-1-en-1-yl)methyl)piperazin-1-yl)benzamide]", "IC50": "> 1000"}
{"smiles": "CC1(C)CCC(CN2CCN(c3ccc(C(=O)NS(=O)(=O)c4ccc(NCC5CC6(CCOCC6)C5)c([N+](=O)[O-])c4)c(Oc4cnc5[nH]ccc5c4)c3)CC2)=C(C23CC(C(F)F)(C2)C3)C1", "note": "[Example 37, 2-((1H-pyrrolo[2,3-b]pyridin-5-yl)oxy)-N-((4-(((7-oxaspiro[3.5]nonan-2-yl)methyl)amino)-3-nitrophenyl)sulfonyl)-4-(4-((2-(3-(difluoromethyl)bicyclo[1.1.1]pentan-1-yl)-4,4-dimethylcyclohex-1-en-1-yl)methyl)piperazin-1-yl)benzamide]", "IC50": "< 100"}
{"smiles": "CN(C)[C@H]1CC[C@H](Nc2ccc(S(=O)(=O)NC(=O)c3ccc(N4CCN(CC5=C(C67CC(C)(C6)C7)CC(C)(C)CC5)CC4)cc3Oc3cnc4[nH]ccc4c3)cc2[N+](=O)[O-])CC1", "note": "[Example 14, 2-((1H-pyrrolo[2,3-b]pyridin-5-yl)oxy)-4-(4-((4,4-dimethyl-2-(3-methylbicyclo[1.1.1]pentan-1-yl)cyclohex-1-en-1-yl)methyl)piperazin-1-yl)-N-((4-(((1r,4r)-4-(dimethylamino)cyclohexyl)amino)-3-nitrophenyl)sulfonyl)benzamide]", "IC50": "< 100"}
{"smiles": "O=C(NS(=O)(=O)c1ccc(NCC2CCOCC2)c([N+](=O)[O-])c1)c1ccc(N2CCN(CC3=C(C45CC(Cl)(C4)C5)CCCC3)CC2)cc1Oc1cnc2[nH]ccc2c1", "note": "[Example 72, 2-((1H-pyrrolo[2,3-b]pyridin-5-yl)oxy)-4-(4-((2-(3-chlorobicyclo[1.1.1]pentan-1-yl)cyclohex-1-en-1-yl)methyl)piperazin-1-yl)-N-((3-nitro-4-(((tetrahydro-2H-pyran-4-yl)methyl)amino)phenyl)sulfonyl)benzamide]", "IC50": "> 1000"}
{"smiles": "CC1(C)CCC(CN2CCN(c3ccc(C(=O)NS(=O)(=O)c4ccc(NCCN5CCOCC5)c([N+](=O)[O-])c4)c(Oc4cnc5[nH]ccc5c4)c3)CC2)=C(C23CC(C)(C2)C3)C1", "note": "[Example 21, 2-(1H-pyrrolo[2,3-b]pyridin-5-yloxy)-4-(4-((4,4-dimethyl-2-(3-methylbicyclo[1.1.1]pentan-1-yl)cyclohex-1-enyl)methyl)piperazin-1-yl)-N-(4-(2-morpholinoethylamino)-3-nitrophenylsulfonyl)benzamide]", "IC50": "100 to 1000"}
{"smiles": "CN(CCO)CC[C@H](CSc1ccccc1)Nc1ccc(S(=O)(=O)NC(=O)c2ccc(N3CCN(CC4=C(C56CC(C(F)(F)F)(C5)C6)CC(C)(C)CC4)CC3)cc2)cc1S(=O)(=O)C(F)(F)F", "note": "[Example 51, (R)-4-(4-((4,4-dimethyl-2-(3-(trifluoromethyl)bicyclo[1.1.1]pentan-1-yl)cyclohex-1-en-1-yl)methyl)piperazin-1-yl)-N-((4-((4-((2-hydroxyethyl)(methyl)amino)-1-(phenylthio)butan-2-yl)amino)-3-((trifluoromethyl)sulfonyl)phenyl)sulfonyl)benzamide]", "IC50": "100 to 1000"}
{"smiles": "CC1(C)CCC(CN2CCN(c3ccc(C(=O)NS(=O)(=O)c4ccc(OCCN5CC6(COC6)C5)c([N+](=O)[O-])c4)c(Oc4cnc5[nH]ccc5c4)c3)CC2)=C(C23CC(Cl)(C2)C3)C1", "note": "[Example 7, 2-(1H-pyrrolo[2,3-b]pyridin-5-yloxy)-N-(4-(2-(2-oxa-6-azaspiro[3.3]heptan-6-yl)ethoxy)-3-nitrophenylsulfonyl)-4-(4-((2-(3-chlorobicyclo[0.1.1]pentan-1-yl)-4,4-dimethylcyclohex-1-enyl)methyl)piperazin-1-yl)benzamide]", "IC50": "> 1000"}
{"smiles": "O=C(NS(=O)(=O)c1ccc(NCC2CCOCC2)c([N+](=O)[O-])c1)c1ccc(N2CCN(CC3=C(C45CC(C(F)F)(C4)C5)CC4(CCC4)CC3)CC2)cc1Oc1cnc2[nH]ccc2c1", "note": "[Example 42, 2-((1H-pyrrolo[2,3-b]pyridin-5-yl)oxy)-4-(4-((6-(3-(difluoromethyl)bicyclo[1.1.1]pentan-1-yl)spiro[3.5]non-6-en-7-yl)methyl)piperazin-1-yl)-N-((3-nitro-4-(((tetrahydro-2H-pyran-4-yl)methyl)amino)phenyl)sulfonyl)benzamide]", "IC50": "< 100"}
{"smiles": "CN1CCC(F)(CNc2ccc(S(=O)(=O)NC(=O)c3ccc(N4CCN(CC5=C(C67CC(C(F)(F)F)(C6)C7)CC(C)(C)CC5)CC4)cc3Oc3cnc4[nH]ccc4c3)cc2[N+](=O)[O-])CC1", "note": "[Example 29, 2-((1H-pyrrolo[2,3-b]pyridin-5-yl)oxy)-4-(4-((4,4-dimethyl-2-(3-(trifluoromethyl)bicyclo[1.1.1]pentan-1-yl)cyclohex-1-en-1-yl)methyl)piperazin-1-yl)-N-((4-(((4-fluoro-1-methylpiperidin-4-yl)methyl)amino)-3-nitrophenyl)sulfonyl)benzamide]", "IC50": "< 100"}
{"smiles": "CC1(C)CCC(C23CC(Cl)(C2)C3)=C(CN2CCN(c3ccc(C(=O)NS(=O)(=O)c4ccc(N[C@H](CCN5CCOCC5)CSc5ccccc5)c(S(=O)(=O)C(F)(F)F)c4)cc3)CC2)C1", "note": "[Example 45, (R)-4-(4-((2-(3-Chlorobicyclo[1.1.1]pentan-1-yl)-5,5-dimethylcyclohex-1-en-1-yl)methyl)piperazin-1-yl)-N-((4-((4-morpholino-1-(phenylthio)butan-2-yl)amino)-3-((trifluoromethyl)sulfonyl)phenyl)sulfonyl)benzamide]", "IC50": "> 1000"}
{"smiles": "CCC12CC(C3=C(CN4CCN(c5ccc(C(=O)NS(=O)(=O)c6ccc(NCC7(F)CCN(C)CC7)c([N+](=O)[O-])c6)c(Oc6cnc7[nH]ccc7c6)c5)CC4)CCC(C)(C)C3)(C1)C2", "note": "[Example 24, 2-(1H-pyrrolo[2,3-b]pyridin-5-yloxy)-4-(4-((2-(3-ethylbicyclo[1.1.1]pentan-1l-yl)-4,4-dimethylcyclohex-1l-enyl)methyl)piperazin-1-yl)-N-(4-((4-fluoro-1l-methylpiperidin-4-yl)methylamino)-3-nitrophenylsulfonyl)benzamide]", "IC50": "< 100"}
{"smiles": "CC1(C)CCC(CN2CCN(c3ccc(C(=O)NS(=O)(=O)c4ccc(N[C@H](CCN5CCOCC5)CSc5ccccc5)c(S(=O)(=O)C(F)(F)F)c4)cc3)CC2)=C(C23CC(C)(C2)C3)C1", "note": "[Example 52, (R)-4-(4-((4,4-Dimethyl-2-(3-methylbicyclo[1.1.1]pentan-1-yl)cyclohex-1-en-1-yl)methyl)piperazin-1-yl)-N-((4-((4-morpholino-1-(phenylthio)butan-2-yl)amino)-3-((trifluoromethyl)sulfonyl)phenyl)sulfonyl)benzamide]", "IC50": "100 to 1000"}
{"smiles": "CC1(C)CCC(CN2CCN(c3ccc(C(=O)NS(=O)(=O)c4ccc(NCC5CC6(CCOCC6)C5)c([N+](=O)[O-])c4)c(Oc4cnc5[nH]ccc5c4)c3)CC2)=C(C23CC(Cl)(C2)C3)C1", "note": "[Example 5, 2-((1H-pyrrolo[2,3-b]pyridin-5-yl)oxy)-N-((4-(((7-oxaspiro[3.5]nonan-2-yl)methyl)amino)-3-nitrophenyl)sulfonyl)-4-(4-((2-(3-chlorobicyclo[1.1.1]pentan-1-yl)-4,4-dimethylcyclohex-1-en-1-yl)methyl)piperazin-1-yl)benzamide]", "IC50": "100 to 1000"}
{"smiles": "CC1(C)CCC(CN2CCN(c3ccc(C(=O)NS(=O)(=O)c4ccc(NCC5CC6(COC6)C5)c([N+](=O)[O-])c4)c(Oc4cnc5[nH]ccc5c4)c3)CC2)=C(C23CC(Cl)(C2)C3)C1", "note": "[Example 2, 2-(1H-pyrrolo[2,3-b]pyridin-5-yl-oxy)-N-(4-(2-oxaspiro[3.3]heptan-6-yl-methylamino)-3-nitrophenylsulfonyl)-4-(4-((2-(3-chlorobicyclo[1.1.1]pentan-1-yl)-4,4-dimethylcyclohex-1en-yl)methyl)piperazin-1-yl)benzamide]", "IC50": "< 100"}
{"smiles": "CN1CCC(CNc2ccc(S(=O)(=O)NC(=O)c3ccc(N4CCN(CC5=C(C67CC(C)(C6)C7)CC(C)(C)CC5)CC4)cc3Oc3cnc4[nH]ccc4c3)cc2[N+](=O)[O-])CC1", "note": "[Example 12, 2-((1H-pyrrolo[2,3-b]pyridin-5-yl)oxy)-4-(4-((4,4-dimethyl-2-(3-methylbicyclo[1.1.1]pentan-1-yl)cyclohex-1-en-1-yl)methyl)piperazin-1-yl)-N-((4-(((1-methylpiperidin-4-yl)methyl)amino)-3-nitrophenyl)sulfonyl)benzamide]", "IC50": "< 100"}
